# Reference: patent US20190022101A1, “Treating Cochlear Synaptopathy” (Massachusetts Eye and Ear Infirmary, priority 2016, published 2019)
# “Also recorded” adds a separate entry of the source.
# How the values were obtained:
# Spiral ganglion neurons = test: Spiral ganglion neurite growth in cultured explants; assay type: cell-based, mouse; details: P4 CBA/CaJ SGN explants, two days culture, neurofilament stain; imipramine 1 uM or 5 uM, BDNF 50 ng/ml; vs control
# Experimental: Spiral ganglion neurons were isolated from P4 CBA/CaJ mouse cochlea and cultured with DMEM/F12 supplemented with N2 and B27 in a 37° C. incubator with 5% CO2 (control conditions)(FIG. 3A). For drug treatment, BDNF (50 ng/ml) (FIG. 3C) or imipramine (1 uM or 5 uM)(FIG. 3B or FIG. 3D) was added. Two days after culture, explants were immunostained with a neurofilament antibody.
# [1] = system: isolated SGNs and denervated organ of Corti; test: Afferent synaptogenesis in co-culture of isolated SGNs and denervated organ of Corti; assay type: cell-based, mouse; details: P4/5 CBA/CaJ co-culture 6 days, amitriptyline 0.5 uM, vs untreated controls
# Experimental: FIGS. 4A-B show amitriptyline induced cochlear afferent synaptogenesis. Isolated SGNs and denervated organ of Corti were extracted from P4/5 CBA/CaJ cochlea, the co-cultured for 6 days (see Brugeaud et al. (2014) Dev Neurobiol. April; 74(4):457-66 and Tong et al. (2013) J Assoc Res Otolaryngol. 14(3):321-9 for detailed methods). In some co-cultured explants, amitriptyline (AT; 0.5 uM) was added (4A, 4B). After culture, explants were fixed and immunostained with antibodies against neurofilament (green), CtBP2 (blue) and PSD-95 (red). Confocal images were taken in the IHC region. Newly generated afferent synapses were identified by juxtaposed CtBP2/PSD-95 puncta (yellow arrows).
# The afferent innervation of hair cells is removed by physical ablation. At postnatal day four to six (P4-P6), the cochlea is dissected and transferred to Petri dishes. The inner and outer hair cells and surrounding supporting cells of the organ of Corti are separated from the SGN at the greater epithelial ridge with a surgical micro-blade, to obtain an intact sensory epithelium devoid of neurons. […] Formation of new synapses and growth of the fibers to contact hair cells is assessed by immunohistochemistry. […]
# [2] = system: IHC synapses and spiral ganglion cells; test: Cochlear synapse and ganglion cell counts in vivo after synaptopathic noise exposure; parameters: species or system CBA/CaJ mice; details: for synapses / cochlear synaptic counts: one year (52 wk) after synaptopathic noise exposure
# Experimental: (§1) Animals: Experiments were carried out in CBA/CaJ mice. CBA/CaJ is a useful reference for studies of both noise-induced and age-related hearing loss and to cochlear injury. […] J Assoc Res Otolaryngol. 2014 October; 15(5):721-38). With respect to aging, after normalizing for cochlear place and relative lifespan, the pace of age-related threshold elevation and SGN loss in CBA/CaJ looks remarkably like that seen in human data (Sergeyenko et al. (2013)). Thus, the strain is particularly appropriate to provide the optimization of bioassays and treatments for application to the human.
# (§2) Noise Exposure: Noise exposure stimuli were generated by a waveform generator (Tucker-Davis WG1), bandpass filtered with >60 dB/octave slope (Frequency Devices), amplified (Crown D-75) and delivered (JBL compression driver) through an exponential horn extending into a small, reverberant exposure chamber. Exposures were delivered to awake animals held within small cells of a subdivided cage, one animal/cell, suspended directly below the horn of the sound-delivery loudspeaker. Noise calibration to target SPL was performed immediately before each exposure session. Sound pressure levels varied by <1 dB across all cells (Kujawa et al. (2006); Kujawa et al. (2009)).
# Cochlear Tissue Processing and Analysis: Techniques for cochlear fixation, dissecting and immunostaining are described in prior publications, as are techniques for quantification of pre- and post-synaptic structures in highpower confocal z-stacks (Kujawa et al. (2009); Sergeyenko et al. (2013)). Briefly, deeply anesthetized mice were intracardially perfused, both cochleae were extracted, and the round and oval windows opened to allow intra-labyrinthine perfusion of the same fixative. One cochlea was processed for immunostained cochlear whole mounts and the other for plastic embedding. We triple stained for pre-synaptic ribbons (CtBP2), post-synaptic glutamate receptors (GluA2) and/or cochlear nerve terminals (Na+K+ATPase); myosin VIIA aided hair cell visualization. […] High-power, confocal image stacks were obtained at evenly spaced locations along the cochlear spiral, including regions of lesion focus. Given the stereotyped sectioning angle, these locations correspond roughly to the 6, 12, 22, 32, 45 and 64 kHz regions. At each locus, high-NA (1.3) objectives were used to obtain a complete confocal z-stack through the synaptic zones of all IHCs and OHCs. In each field, hair cells were counted under DIC optics, and expressed pre- and post-synaptic elements on a per hair cell basis. For afferent innervation, synaptic ribbons were counted in IHC areas, and percentages of ribbons with closely apposing glutamate receptor patches or terminals assessed, aided by the use of Amira software to enable a true 3-D analysis of the volumes of immunostained structures, and custom software to isolate the voxel space around each structure of interest.
# For quantification of spiral ganglion cells, cochleae were additionally postfixed, decalcified and osmicated and embedded in EPON in a stereotyped orientation. Plastic-embedded, osmium-stained sections (10 μm) were cut in a roughly horizontal plane parallel to the modiolus. In each case, ganglion cell counts were made in the section precisely in the middle of each half turn, where the cutting angle is perpendicular to the spiral of Rosenthal's canal, at regions corresponding to the synapse counts. In each selected section, the area of Rosenthal's canal is traced, the number of ganglion cells within was counted, including only those cells with a visible nucleus and nucleolus, and the cell density is computed (cells/10,000 μm^2). All morphological analyses were performed by an individual having no knowledge of animal age or treatment, with subsets double counted by a second individual as a check for consistency. […]
# cochlear function = test: Cochlear function (ABR Wave 1, DPOAE) in vivo after synaptopathic noise exposure; parameters: species or system CBA/CaJ mice; details: vs saline-treated controls; for ABR Wave 1 amplitudes (neural response amplitudes): 52 wk / one year post noise
# Experimental: as §1, §2
# Cochlear Function: Detailed techniques have been described in previous publications (Kujawa et al. (2006); Kujawa et al. (2009); Sergeyenko et al. (2013)). […]
# Effects of noise on the cochlea and its interaction with age were assessed physiologically using outer hair cell-based distortion product otoacoustic emissions (DPOAEs) and neural-based auditory brainstem responses (ABRs, specifically, wave 1). Response thresholds and suprathreshold response growth functions were recorded in ketamine/xylazine-anesthetized mice. DPOAEs were measured in response to f1 and f2 primaries (f2/f1=1.2, f2=ABR test frequencies; L2=L1−10 dB). […] ABRs were recorded with 5 ms tone-pips (0.5 msec rise/fall, alternating polarity) for the same range of frequencies. Wave 1 thresholds and wave peak ratios were determined by custom offline analysis routines.
Molecule,spiral ganglion neurite growth (Spiral ganglion neurons),"newly generated afferent synapses (juxtaposed CtBP2/PSD-95 puncta), synapse counts [1]","newly generated afferent synapses (juxtaposed CtBP2/PSD-95 puncta), synapse counts ([1]; listed as AT)","period of post-drug efficacy ([2]; initial results, compared to short-lived benefit of exogenously-applied neurotrophins)",synapses / cochlear synaptic counts ([2]; vs saline-treated controls),"synapses / cochlear synaptic counts ([2]; vs saline-treated controls, listed as AT)","ganglion cell counts ([2]; one year post excitotoxic noise, vs saline-treated controls)","synapses ([2]; short post-exposure times, vs saline treated controls)","effects with a single dose of drug ([2]; single dose, in vivo (FIG. 6))",ABR Wave 1 amplitudes (neural response amplitudes) (cochlear function),ABR Wave 1 amplitudes (neural response amplitudes) (cochlear function; listed as AT),DPOAE amplitudes (cochlear function; 52 wk post noise)
CN(C)CCCN1c2ccccc2CCc2ccccc21 [imipramine],promoted spiral ganglion neurite growth in a dose-dependent manner; also recorded: dose-responsive dendritic sprouting,–,–,–,–,–,–,–,–,–,–,–
CN(C)CCC=C1c2ccccc2CCc2ccccc21 [amitriptyline],–,synaptogenesis; also recorded: new afferent synapses are generated,greater in AT-treated than in untreated controls,long period of post-drug efficacy,cochlear synaptic and ganglion cell counts were greater,persisting to at least one year after synaptopathic exposure,ganglion cell counts were greater,more synapses than saline treated controls,could be seen even with a single dose of drug,neural response amplitudes were larger,larger in AT-treated ears,not DPOAE amplitudes (5C) were larger
"brain derived neurotrophic factor (protein, UniProt P23560 19-247, looked up) Neurotrophic factor BDNF …: APMKEANIRGQGGLAYPGVRTHGTLESVNGPKAGSRGLTSLADTFEHVIEELLDEDQKVRPNEENNKDADLYTSRVMLSSQVPLEPPLLFLLEEYKNYLDAANMSMRVRRHSDPARRGELSVCDSISEWVTAADKKTAVDMSGGTVTVLEKVPVSKGQLKQYFYETKCNPMGYTKEGCRGIDKRHWNSQCRTTQSYVRALTMDSKKRIGWRFIRIDTSCVCTLTIKRGR",promoted neurite outgrowth,–,–,–,–,–,–,–,–,–,–,–
